Patent US6727254B2 (Schering Corporation, priority 2001, dated 2004)

These molecules were tested against T1, ORL-1 receptor (Homo sapiens, UniProt P41146) (assay: Nociceptin binding assay). Settings: CHO cell membrane preparation expressing the ORL-1 receptor; [125I][Tyr14]nociceptin.
T1 construct: expressed in transfected cells; host or cells: CHO cells (membrane preparation)
T1 sequence (P41146 whole entry): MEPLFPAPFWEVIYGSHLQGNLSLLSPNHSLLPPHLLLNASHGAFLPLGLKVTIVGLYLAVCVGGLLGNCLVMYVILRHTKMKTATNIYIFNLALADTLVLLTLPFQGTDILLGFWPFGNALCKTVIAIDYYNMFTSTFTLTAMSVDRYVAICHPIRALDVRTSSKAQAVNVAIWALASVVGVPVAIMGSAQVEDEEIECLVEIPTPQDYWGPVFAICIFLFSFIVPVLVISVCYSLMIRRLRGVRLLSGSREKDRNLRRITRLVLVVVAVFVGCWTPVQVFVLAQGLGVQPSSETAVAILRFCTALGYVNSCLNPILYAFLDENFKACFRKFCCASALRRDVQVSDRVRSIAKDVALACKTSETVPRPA
Experimental: CHO cell membrane preparation expressing the ORL-1 receptor (2 mg) was incubated with varying concentrations of [^125I][Tyr ^14]nociceptin (3-500 pM) in a buffer containing 50 mM HEPES (pH7.4), 10 mM NaCl, 1 mM MgCl2, 2.5 mM CaCl2, 1 mg/ml bovine serum albumin and 0.025% bacitracin. In a number of studies, assays were carried out in buffer 50 mM tris-HCl (pH 7.4), 1 mg/ml bovine serum albumin and 0.025% bacitracin. Samples were incubated for 1 h at room temperature (22° C.). Radiolabelled ligand bound to the membrane was harvested over GF/B filters presoaked in 0.1% polyethyleneimine using a Brandell cell harvester and washed five times with 5 ml cold distilled water. Nonspecific binding was determined in parallel by similar assays performed in the presence of 1 μM nociceptin. All assay points were performed in duplicates of total and non-specific binding.
Calculations of Ki were made using methods well known in the art.
With OC1(c2ccccn2)CC2CCC(C1)N2C(c1ccccc1Cl)c1ccccc1Cl (centres unmarked) [Example 4, 8-[Bis(2-Chlorophenyl)methyl]-3-(2-pyridinyl)-8-azabicyclo[3.2.1]octan-3-ol] the Ki was 4 nM.
Work on OC1(c2ccc(Br)cn2)CC2CCC(C1)N2C(c1ccccc1Cl)c1ccccc1Cl (centres unmarked) [Example 14, 8-[Bis(2-chlorophenyl)methyl]-3-(5-bromo-2-pyridinyl)-8-azabicyclo[3.2.1]octan-3-ol] yielded a Ki of 1.3 nM.
CCc1cnc(C2(O)CC3CCC(C2)N3C(c2ccccc2Cl)c2ccccc2Cl)nc1 (centres unmarked) [Example 2, 8-[Bis(2-chlorophenyl)methyl]-3-(5-ethyl-2-pyrimidinyl)-8-azabicyclo[3.2.1]octan-3-ol] was tested, and the Ki was 7.6 nM.
With OC1(c2cccnn2)CC2CCC(C1)N2C(c1ccccc1Cl)c1ccccc1Cl (centres unmarked) [Example 11, 8-[Bis(2-chlorophenyl)methyl]-3-(3-pyridazinyl)-8-azabicyclo[3.2.1]octan-3-ol] the Ki was 7 nM.
Molecule OC1(c2nccc(N3CCNCC3)n2)CC2CCC(C1)N2C(c1ccccc1Cl)c1ccccc1Cl (centres unmarked) [Example 3, 8-[Bis(2-chlorophenyl)methyl]-3-[4-(1-piperazinyl)-2-pyrimidinyl]-8-azabicyclo[3.2.1]octan-3-ol] has a Ki of 4 nM.
OC1(c2cnccn2)CC2CCC(C1)N2C(c1ccccc1Cl)c1ccccc1Cl (centres unmarked) [Example 12, 8-[Bis(2-chlorophenyl)methyl]-3-(2-pyrazinyl)-8-azabicyclo[3.2.1]octan-3-ol] was tested, and the Ki was 2 nM.
Work on COC1(c2ncccn2)CC2CCC(C1)N2C(c1ccccc1Cl)c1ccccc1Cl (centres unmarked) [Example 6, 8-[Bis(2-chlorophenyl)methyl]-3-methoxy-3-(2-pyrimidinyl)-8-azabcyclo[3.2.1]octane] yielded a Ki of 5.4 nM.
For Cn1nccc1C1(O)CC2CCC(C1)N2C(c1ccccc1Cl)c1ccccc1Cl (centres unmarked) [Example 8, 8-[Bis(2-chlorophenyl)methyl]-3-(1-methyl-pyrazol-5-yl)-8-azabicyclo[3.2.1]octan-3-ol], the Ki was 6 nM.
